The values that follow come from ChEMBL document CHEMBL2384905, “Therapeutic agents triggering nonapoptotic cancer cell death” (J Med Chem, 2013).

As a reminder, the TGI is how far tumour growth fell short of that in controls.

Holding throughout (assay type): functional, Homo sapiens, Cancer cell lines
The nature of experiment [1]: Antitumor activity against lung cancer cells in lung cancer patient assessed as survival rate relative to control.
A short description of experiment [2]: Antitumor activity against lung cancer cells in lung cancer patient assessed as remission rate relative to control.
Experiment [3] is described as follows: Antitumor activity against lung cancer cells in lung cancer patient assessed as tumor growth inhibition relative to control.

On to `CC(C)=CC[C@@H](O)C1=CC(=O)c2c(O)ccc(O)c2C1=O` [SHIKONIN], for which, in experiment [1], the Survival turned out to be 47%. Further, the Activity in experiment [2] was 37%. Besides, the inhibition of tumour growth (TGI) in experiment [3] was found to be 63%.
